Assays:
[1] = Antioxidant activity assessed as DPPH radical scavenged per mole of compound after 20 mins; type: functional
Tyrosinase [2] = biological target: T1, Tyrosinase (Homo sapiens, UniProt P14679); test: Drug level treated with 10 mM epirhododendrin assessed as tyrosinase (unknown origin)-mediated redox transformation in presence of vitamin C by HPLC analysis; type: ADME
T1 sequence (P14679 whole entry): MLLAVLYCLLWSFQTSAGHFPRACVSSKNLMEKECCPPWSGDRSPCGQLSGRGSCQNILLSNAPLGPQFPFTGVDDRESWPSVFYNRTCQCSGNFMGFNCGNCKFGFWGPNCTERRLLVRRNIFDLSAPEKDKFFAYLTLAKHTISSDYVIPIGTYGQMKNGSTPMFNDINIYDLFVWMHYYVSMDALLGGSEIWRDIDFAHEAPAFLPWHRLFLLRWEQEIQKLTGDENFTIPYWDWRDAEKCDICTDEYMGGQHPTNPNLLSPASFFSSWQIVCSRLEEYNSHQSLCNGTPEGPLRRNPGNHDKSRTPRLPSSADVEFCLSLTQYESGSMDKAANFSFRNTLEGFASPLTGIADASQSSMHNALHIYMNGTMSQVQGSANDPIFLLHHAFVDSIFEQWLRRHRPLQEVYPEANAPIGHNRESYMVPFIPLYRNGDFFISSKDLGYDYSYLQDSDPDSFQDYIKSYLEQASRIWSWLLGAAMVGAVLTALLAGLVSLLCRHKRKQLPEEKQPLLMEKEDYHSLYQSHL

Tyrosinase [3] = biological target: T1, Tyrosinase; test: Drug metabolism assessed as tyrosinase (unknown origin)-mediated redox transformation by measuring sonnerphenolic C formation at 10 mM in presence of vitamin C by HPLC analysis; type: ADME; conditions: 10000 µM

Drug metabolism (Tyrosinase [2])	Drug metabolism (Tyrosinase [3])	Molecule	Activity [1]
Metabolite_Detected		C[C@@H](CCc1ccc(O)c(O)c1)O[C@@H]1O[C@H](CO)[C@@H](O)[C@H](O)[C@H]1O	2.23 mol
	Metabolite_Detected	C[C@@H](CCc1ccc(O)cc1)O[C@@H]1O[C@H](CO)[C@@H](O)[C@H](O)[C@H]1O	0 mol
		VITAMIN E	1.86 mol
